Measured values reported in ChEMBL document CHEMBL1201862, “PubChem BioAssay data set” (2004).
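Tested at 5 concentrations; 48 h exposure; 96-well plates; endpoints linearly interpolated, else capped at highest concentration. Here, GI50 denotes the concentration required for 50% inhibition of growth.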 Activity calls are given as the source filed them. Rule as the data show it: active = GI50 up to about 1.1 µM and inactive = higher.

How the values were obtained:
Assay in all cases: NCI-60 cell line screen, 48 h
HCC 2998 = tested on: HCC 2998
UACC-62 = tested on: UACC-62
NCI/ADR-RES = tested on: NCI/ADR-RES
HOP-18 = tested on: HOP-18
IGROV-1 = tested on: IGROV-1
NCI-H226 = tested on: NCI-H226
SF-539 = tested on: SF-539
DLD-1 = tested on: DLD-1
SF-295 = tested on: SF-295
SN12C = tested on: SN12C
HCT-116 = tested on: HCT-116
SW-620 = tested on: SW-620
HT-29 = tested on: HT-29
HL-60 = tested on: HL-60
A549 = tested on: A549
COLO 205 = tested on: COLO 205
NCI-H522 = tested on: NCI-H522
UO-31 = tested on: UO-31
OVCAR-3 = tested on: OVCAR-3
DMS-273 = tested on: DMS-273
OVCAR-4 = tested on: OVCAR-4
HOP-62 = tested on: HOP-62
KM-20L2 = tested on: KM-20L2
SK-MEL-28 = tested on: SK-MEL-28
SNB-75 = tested on: SNB-75
XF498 = tested on: XF498
EKVX = tested on: EKVX
OVCAR-5 = tested on: OVCAR-5
A498 = tested on: A498
OVCAR-8 = tested on: OVCAR-8
HOP-92 = tested on: HOP-92
Malme-3M = tested on: Malme-3M
SK-OV-3 = tested on: SK-OV-3
KM12 = tested on: KM12
K562 = tested on: K562
RXF 393 = tested on: RXF 393
MCF7 = tested on: MCF7
NCI-H460 = tested on: NCI-H460
MOLT-4 = tested on: MOLT-4
SNB-78 = tested on: SNB-78
SF-268 = tested on: SF-268
U-251 = tested on: U-251
CCRF-CEM = tested on: CCRF-CEM
SK-MEL-2 = tested on: SK-MEL-2
DMS-114 = tested on: DMS-114
SNB-19 = tested on: SNB-19
NCI-H23 = tested on: NCI-H23
SK-MEL-5 = tested on: SK-MEL-5
UACC-257 = tested on: UACC-257
HCT-15 = tested on: HCT-15
LOX IMVI = tested on: LOX IMVI
CAKI-1 = tested on: CAKI-1
M19-MEL = tested on: M19-MEL
TK-10 = tested on: TK-10
786-0 = tested on: 786-0
M14 = tested on: M14
ACHN = tested on: ACHN
RPMI-8226 = tested on: RPMI-8226
SR = tested on: SR

## c1ccc2c(c1)OCCc1cn[nH]c1-2
HCC 2998
  GI50: > 100 µM (inactive)
UACC-62
  GI50: 66.7 µM (inactive)
NCI/ADR-RES
  GI50: > 100 µM (inactive)
HOP-18
  GI50: > 43.5 µM (inactive)
IGROV-1
  GI50: > 100 µM (inactive)
NCI-H226
  GI50: 22.2 µM (inactive)
SF-539
  GI50: > 100 µM (inactive)
DLD-1
  GI50: > 100 µM (inactive)
SF-295
  GI50: > 100 µM (inactive)
SN12C
  GI50: > 79.3 µM (inactive)
HCT-116
  GI50: > 100 µM (inactive)
SW-620
  GI50: > 100 µM (inactive)
HT-29
  GI50: > 100 µM (inactive)
HL-60
  GI50: 60.3 µM (inactive)
A549
  GI50: > 100 µM (inactive)
COLO 205
  GI50: > 100 µM (inactive)
NCI-H522
  GI50: > 100 µM (inactive)
UO-31
  GI50: > 100 µM (inactive)
OVCAR-3
  GI50: > 100 µM (inactive)
DMS-273
  GI50: > 100 µM (inactive)
OVCAR-4
  GI50: > 100 µM (inactive)
HOP-62
  GI50: > 61.7 µM (inactive)
KM-20L2
  GI50: > 100 µM (inactive)
SK-MEL-28
  GI50: > 100 µM (inactive)
SNB-75
  GI50: 42 µM (inactive)
XF498
  GI50: 52.2 µM (inactive)
EKVX
  GI50: 80.5 µM (inactive)
OVCAR-5
  GI50: > 100 µM (inactive)
A498
  GI50: > 93.5 µM (inactive)
OVCAR-8
  GI50: > 100 µM (inactive)
HOP-92
  GI50: > 42.3 µM (inactive)
Malme-3M
  GI50: > 100 µM (inactive)
SK-OV-3
  GI50: > 100 µM (inactive)
KM12
  GI50: > 100 µM (inactive)
K562
  GI50: > 100 µM (inactive)
RXF 393
  GI50: > 69.2 µM (inactive)
MCF7
  GI50: > 100 µM (inactive)
NCI-H460
  GI50: > 100 µM (inactive)
MOLT-4
  GI50: > 100 µM (inactive)
SNB-78
  GI50: > 100 µM (inactive)
SF-268
  GI50: > 100 µM (inactive)
U-251
  GI50: > 100 µM (inactive)
CCRF-CEM
  GI50: > 100 µM (inactive)
SK-MEL-2
  GI50: > 100 µM (inactive)
DMS-114
  GI50: 99.1 µM (inactive)
SNB-19
  GI50: > 100 µM (inactive)
NCI-H23
  GI50: > 100 µM (inactive)
SK-MEL-5
  GI50: > 100 µM (inactive)
UACC-257
  GI50: > 100 µM (inactive)
HCT-15
  GI50: > 100 µM
LOX IMVI
  GI50: > 100 µM (inactive)
CAKI-1
  GI50: 0.452 µM (active)

## Cc1cc([N+](=O)[O-])c(C)c2c1[nH]c1ccc(/C(CCC3CCCC3)=N\N)cc12
HCC 2998
  GI50: 17 µM (inactive)
HOP-18
  GI50: 11 µM (inactive)
NCI-H226
  GI50: 20.8 µM (inactive)
M19-MEL
  GI50: 19 µM (inactive)
SF-539
  GI50: 17.3 µM (inactive)
SF-295
  GI50: 18.8 µM (inactive)
SN12C
  GI50: 14.8 µM (inactive)
HCT-116
  GI50: 9.89 µM (inactive)
SW-620
  GI50: 16.5 µM (inactive)
TK-10
  GI50: 14.2 µM (inactive)
HT-29
  GI50: 24 µM (inactive)
HL-60
  GI50: > 10 µM (inactive)
A549
  GI50: 17.6 µM (inactive)
786-0
  GI50: 14.7 µM (inactive)
COLO 205
  GI50: 17.5 µM (inactive)
NCI-H522
  GI50: 16.4 µM (inactive)
UO-31
  GI50: 15.3 µM (inactive)
OVCAR-3
  GI50: 20 µM (inactive)
M14
  GI50: 17.6 µM (inactive)
DMS-273
  GI50: 20.2 µM (inactive)
OVCAR-4
  GI50: 27.4 µM (inactive)
HOP-62
  GI50: 18.4 µM (inactive)
SK-MEL-28
  GI50: 16.9 µM (inactive)
ACHN
  GI50: 15.5 µM (inactive)
SNB-75
  GI50: 22 µM (inactive)
XF498
  GI50: 14.7 µM (inactive)
RPMI-8226
  GI50: 20.3 µM (inactive)
EKVX
  GI50: 17.4 µM (inactive)
OVCAR-5
  GI50: > 10 µM (inactive)
OVCAR-8
  GI50: 23.1 µM (inactive)
Malme-3M
  GI50: 17.5 µM (inactive)
KM12
  GI50: 16 µM (inactive)
K562
  GI50: 10.3 µM (inactive)
NCI-H460
  GI50: 18 µM (inactive)
MOLT-4
  GI50: 11.9 µM (inactive)
SNB-78
  GI50: 36.5 µM (inactive)
SF-268
  GI50: 18.9 µM (inactive)
CCRF-CEM
  GI50: 10.4 µM (inactive)
SK-MEL-2
  GI50: 16.2 µM (inactive)
DMS-114
  GI50: 17.6 µM (inactive)
SNB-19
  GI50: 17.7 µM (inactive)
NCI-H23
  GI50: 14.7 µM (inactive)
SR
  GI50: 19.6 µM (inactive)
SK-MEL-5
  GI50: 18.2 µM (inactive)
UACC-257
  GI50: 20 µM (inactive)
HCT-15
  GI50: 14.2 µM
LOX IMVI
  GI50: 15.4 µM (inactive)
CAKI-1
  GI50: > 10 µM (inactive)
